{"source": "PubChem BioAssay (NCI)", "assay_in_all_cases": "growth of human tumour cells (NCI), 48 h", "key": {"SF-268 CNS": {"system": "SF-268 CNS"}, "SN12C renal": {"system": "SN12C renal"}, "M14 melanoma": {"system": "M14 melanoma"}, "MOLT-4 leukemia": {"system": "MOLT-4 leukemia"}, "EKVX NSCLC": {"system": "EKVX NSCLC"}, "HCT-116 colon": {"system": "HCT-116 colon"}, "IGROV1 ovarian": {"system": "IGROV1 ovarian"}, "UO-31 renal": {"system": "UO-31 renal"}, "RXF 393 renal": {"system": "RXF 393 renal"}, "HOP-92 NSCLC": {"system": "HOP-92 NSCLC"}, "786-0 renal": {"system": "786-0 renal"}, "ACHN renal": {"system": "ACHN renal"}, "RPMI-8226 leukemia": {"system": "RPMI-8226 leukemia"}, "T-47D breast": {"system": "T-47D breast"}, "OVCAR-5 ovarian": {"system": "OVCAR-5 ovarian"}, "SNB-19 CNS": {"system": "SNB-19 CNS"}, "TK-10 renal": {"system": "TK-10 renal"}, "MDA-N": {"system": "MDA-N"}, "SK-MEL-2 melanoma": {"system": "SK-MEL-2 melanoma"}, "NCI-H460 lung": {"system": "NCI-H460 lung"}, "KM12 colon": {"system": "KM12 colon"}, "HT29 colon": {"system": "HT29 colon"}, "PC-3 prostate": {"system": "PC-3 prostate"}, "SK-MEL-5 melanoma": {"system": "SK-MEL-5 melanoma"}, "UACC-257 melanoma": {"system": "UACC-257 melanoma"}, "COLO 205 colon": {"system": "COLO 205 colon"}, "NCI-H522 lung": {"system": "NCI-H522 lung"}, "SR leukemia": {"system": "SR leukemia"}, "HCT-15 colon": {"system": "HCT-15 colon"}, "HCC-2998 colon": {"system": "HCC-2998 colon"}, "SK-MEL-28 melanoma": {"system": "SK-MEL-28 melanoma"}, "A498 renal": {"system": "A498 renal"}, "CAKI-1 renal": {"system": "CAKI-1 renal"}, "OVCAR-4 ovarian": {"system": "OVCAR-4 ovarian"}, "U251 CNS": {"system": "U251 CNS"}, "SK-OV-3 ovarian": {"system": "SK-OV-3 ovarian"}, "HS 578T breast": {"system": "HS 578T breast"}, "MDA-MB-435": {"system": "MDA-MB-435"}, "MDA-MB-231 breast": {"system": "MDA-MB-231 breast"}, "OVCAR-3 ovarian": {"system": "OVCAR-3 ovarian"}, "K-562 leukemia": {"system": "K-562 leukemia"}, "MCF7 breast": {"system": "MCF7 breast"}, "HOP-62 NSCLC": {"system": "HOP-62 NSCLC"}, "MALME-3M melanoma": {"system": "MALME-3M melanoma"}, "DU-145 prostate": {"system": "DU-145 prostate"}, "NCI-H226 lung": {"system": "NCI-H226 lung"}, "UACC-62 melanoma": {"system": "UACC-62 melanoma"}, "CCRF-CEM leukemia": {"system": "CCRF-CEM leukemia"}, "NCI/ADR-RES ovarian": {"system": "NCI/ADR-RES ovarian"}, "NCI-H23 lung": {"system": "NCI-H23 lung"}, "SF-295 CNS": {"system": "SF-295 CNS"}, "BT-549 breast": {"system": "BT-549 breast"}, "SF-539 CNS": {"system": "SF-539 CNS"}, "HL-60(TB) leukemia": {"system": "HL-60(TB) leukemia"}, "A549 NSCLC": {"system": "A549 NSCLC"}}, "note": "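Each compound was tested at five concentrations against cells in 96-well plates for 48 hours. TGI is the concentration that stops growth completely.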"}
{"smiles": "CCCCN1C(=O)CS/C1=N/Nc1nc2c([nH]1)c(=O)n(C)c(=O)n2C", "values": [{"measurement": "TGI", "setting": "SF-268 CNS", "result": "> 100", "unit": "µM"}, {"measurement": "TGI", "setting": "SN12C renal", "result": "> 100", "unit": "µM"}, {"measurement": "TGI", "setting": "M14 melanoma", "result": "> 100", "unit": "µM"}, {"measurement": "TGI", "setting": "MOLT-4 leukemia", "result": 64.7, "unit": "µM"}, {"measurement": "TGI", "setting": "EKVX NSCLC", "result": "> 100", "unit": "µM"}, {"measurement": "TGI", "setting": "HCT-116 colon", "result": 29.3, "unit": "µM"}, {"measurement": "TGI", "setting": "IGROV1 ovarian", "result": "> 100", "unit": "µM"}, {"measurement": "TGI", "setting": "UO-31 renal", "result": "> 100", "unit": "µM"}, {"measurement": "TGI", "setting": "RXF 393 renal", "result": "> 100", "unit": "µM"}, {"measurement": "TGI", "setting": "HOP-92 NSCLC", "result": "> 100", "unit": "µM"}, {"measurement": "TGI", "setting": "786-0 renal", "result": 41.7, "unit": "µM"}, {"measurement": "TGI", "setting": "ACHN renal", "result": "> 100", "unit": "µM"}, {"measurement": "TGI", "setting": "RPMI-8226 leukemia", "result": "> 100", "unit": "µM"}, {"measurement": "TGI", "setting": "T-47D breast", "result": "> 100", "unit": "µM"}, {"measurement": "TGI", "setting": "OVCAR-5 ovarian", "result": 59.4, "unit": "µM"}, {"measurement": "TGI", "setting": "SNB-19 CNS", "result": "> 100", "unit": "µM"}, {"measurement": "TGI", "setting": "TK-10 renal", "result": "> 100", "unit": "µM"}, {"measurement": "TGI", "setting": "MDA-N", "result": 36.6, "unit": "µM"}, {"measurement": "TGI", "setting": "SK-MEL-2 melanoma", "result": "> 100", "unit": "µM"}, {"measurement": "TGI", "setting": "NCI-H460 lung", "result": "> 100", "unit": "µM"}, {"measurement": "TGI", "setting": "KM12 colon", "result": "> 100", "unit": "µM"}, {"measurement": "TGI", "setting": "HT29 colon", "result": "> 100", "unit": "µM"}, {"measurement": "TGI", "setting": "PC-3 prostate", "result": "> 100", "unit": "µM"}, {"measurement": "TGI", "setting": "SK-MEL-5 melanoma", "result": "> 100", "unit": "µM"}, {"measurement": "TGI", "setting": "UACC-257 melanoma", "result": "> 100", "unit": "µM"}, {"measurement": "TGI", "setting": "COLO 205 colon", "result": "> 100", "unit": "µM"}, {"measurement": "TGI", "setting": "NCI-H522 lung", "result": "> 100", "unit": "µM"}, {"measurement": "TGI", "setting": "SR leukemia", "result": 38.1, "unit": "µM"}, {"measurement": "TGI", "setting": "HCT-15 colon", "result": "> 100", "unit": "µM"}, {"measurement": "TGI", "setting": "HCC-2998 colon", "result": "> 100", "unit": "µM"}, {"measurement": "TGI", "setting": "SK-MEL-28 melanoma", "result": "> 100", "unit": "µM"}, {"measurement": "TGI", "setting": "A498 renal", "result": "> 100", "unit": "µM"}, {"measurement": "TGI", "setting": "CAKI-1 renal", "result": "> 100", "unit": "µM"}, {"measurement": "TGI", "setting": "OVCAR-4 ovarian", "result": 71.4, "unit": "µM"}, {"measurement": "TGI", "setting": "U251 CNS", "result": "> 100", "unit": "µM"}, {"measurement": "TGI", "setting": "SK-OV-3 ovarian", "result": "> 100", "unit": "µM"}, {"measurement": "TGI", "setting": "HS 578T breast", "result": "> 100", "unit": "µM"}, {"measurement": "TGI", "setting": "MDA-MB-435", "result": 40.7, "unit": "µM"}, {"measurement": "TGI", "setting": "MDA-MB-231 breast", "result": "> 100", "unit": "µM"}, {"measurement": "TGI", "setting": "OVCAR-3 ovarian", "result": "> 100", "unit": "µM"}, {"measurement": "TGI", "setting": "K-562 leukemia", "result": "> 100", "unit": "µM"}, {"measurement": "TGI", "setting": "MCF7 breast", "result": 31.3, "unit": "µM"}, {"measurement": "TGI", "setting": "HOP-62 NSCLC", "result": "> 100", "unit": "µM"}, {"measurement": "TGI", "setting": "MALME-3M melanoma", "result": "> 100", "unit": "µM"}, {"measurement": "TGI", "setting": "DU-145 prostate", "result": "> 100", "unit": "µM"}, {"measurement": "TGI", "setting": "NCI-H226 lung", "result": "> 100", "unit": "µM"}, {"measurement": "TGI", "setting": "UACC-62 melanoma", "result": "> 100", "unit": "µM"}, {"measurement": "TGI", "setting": "CCRF-CEM leukemia", "result": 54.8, "unit": "µM"}, {"measurement": "TGI", "setting": "NCI/ADR-RES ovarian", "result": "> 100", "unit": "µM"}, {"measurement": "TGI", "setting": "NCI-H23 lung", "result": "> 100", "unit": "µM"}, {"measurement": "TGI", "setting": "SF-295 CNS", "result": 53.1, "unit": "µM"}, {"measurement": "TGI", "setting": "BT-549 breast", "result": "> 100", "unit": "µM"}, {"measurement": "TGI", "setting": "SF-539 CNS", "result": "> 100", "unit": "µM"}, {"measurement": "TGI", "setting": "HL-60(TB) leukemia", "result": "> 100", "unit": "µM"}, {"measurement": "TGI", "setting": "A549 NSCLC", "result": "> 100", "unit": "µM"}]}
